Converted amounts (≈) assume the structure as drawn.

The series in a line: Solubility of the compound. In kind it is physicochemical.
As usually defined, the solubility is how much of the substance goes into solution per volume. Low readings indicate a poorly soluble substance, high ones a readily soluble substance. Turning to `Cn1ccc2c(-c3ccc(C(=O)O)c(C4CCCC4)c3)ccnc21`, the solubility is 40 µg/mL (≈ 125 µM).

`O=C(O)c1ccc(-c2ccnc(Nc3ccccc3)n2)cc1C1CCCC1` returned a solubility of 10.6 µg/mL (≈ 29.5 µM).

As for `O=C(O)c1ccc(-c2c[nH]c3ncc(-c4ccccc4)cc23)cc1C1CCCC1` [GSK-650394], the solubility stood at 2 µg/mL (≈ 5.23 µM).

For `O=C(O)c1ccc(-c2ncnc3ccc(-c4ccccc4)cc23)cc1C1CCCC1`, the solubility is 70.4 µg/mL (≈ 178 µM).

As for `O=C(O)c1ccc(-c2csc3ncc(-c4ccccc4)cc23)cc1C1CCCC1`, the solubility came to 1.5 µg/mL (≈ 3.75 µM).

Consider `O=C(O)c1ccc(-c2cnn3ccc(-c4ccccc4)cc23)cc1C1CCCC1`, for which the solubility is 42 µg/mL (≈ 110 µM). Against the preceding compound, the solubility is about 28-fold higher.

Compound `O=C(O)c1ccc(-c2ccnc3ccc(-c4ccccc4)cc23)cc1C1CCCC1` returned a solubility of 38 µg/mL (≈ 96.6 µM).

As for `O=C(O)c1ccc(-c2ccnc3ccccc23)cc1C1CCCC1`, the solubility worked out at 64.4 µg/mL (≈ 203 µM). This solubility lies about 1.7-fold higher than the previous one.

As for `O=C(O)c1ccc(-c2ncnc3sccc23)cc1C1CCCC1`, the concentration in solution (solubility) was 62.6 µg/mL (≈ 193 µM). This solubility and that of the compound before are within 1.5-fold of each other.

As to `O=C(O)c1ccc(-c2ccncn2)cc1C1CCCC1`, the concentration in solution (solubility) came to 19.4 µg/mL (≈ 72.3 µM).
